Measured values taken from patent publication US20120263764A1, “COMPOSITIONS AND METHODS FOR INHIBITING AND/OR MODULATING EFFECTOR T-CELLS INVOLVED IN INFLAMMATORY NEURODEGENERATIVE DISEASE” (Revalesio Corporation, priority 2011, published 2012).

Experiment: Body weight in MBP EAE rat model
Type: in vivo, Lewis rats
Conditions: Group 2F; at study termination
Text: (§1) Body weight loss can be the first sign of disease initiation, while a sudden marked weight gain tends to accompany remission of EAE symptoms. Therefore, determination of individual body weights of animals was made shortly before EAE induction on study day 0 (study commencement) and thereafter on a daily basis throughout the entire 21-day observation period.
as §1, with “This working EXAMPLE discloses the weight change of rats subjected to the experiment described in Example 7. Body” for “Body”, “and” for “and thereafter”, “the” for “the entire”

C[C@@H]1C[C@H]2[C@@H]3CCC4=CC(=O)C=C[C@]4(C)[C@@]3(F)[C@@H](O)C[C@]2(C)[C@@]1(O)C(=O)CO [Dexamethasone]
mean body weight lost: 2%
